The values that follow come from patent US20180085356A1, “METHOD OF TREATING DISEASE CHARACTERISED BY PROTEIN AGGREGATE DEPOSITION IN NEURONAL CELLS” (CHRONOS THERAPEUTICS LIMITED, priority 2013, published 2018).

Data set [1] relates to FET3, SOD1, SOD2, COX9 transcripts. The experiment in a line: Yeast transcript analysis by RT-qPCR. Format: cell-based, Saccharomyces cerevisiae. As to conditions: 10 μg/ml tacrolimus, cultures aged 3 days, normalised to U4 snRNA. On the procedure:
A pre-culture was diluted 1/100 into synthetic complete medium and tacrolimus was added to a final concentration of 10 μg/ml. (An equivalent volume of DMSO was added to a parallel culture as a control.) The cultures were then allowed to age for 3 days, before RNA extraction and transcript analysis by reverse transcription-qPCR (RT-qPCR). (Transcript levels are normalised to that of the U4 snRNA.)

In data set [2] the test system is C. elegans expressing wild-type human SOD-1 in the body wall muscle. The experiment in a line: C. elegans lifespan assay, wild-type SOD-1 strain. Format: in vivo, Caenorhabditis elegans. The protocol: Tacrolimus was tested in a number of disease models using the nematode worm, Caenorhabditis elegans, in which aggregate-prone proteins associated with neurodegenerative diseases are expressed in certain cell types. The effect of tacrolimus was determined by measuring the lifespan of worms in the presence and absence of tacrolimus, using the following general methodology. All of the worms tested using these assays also contained, in addition to the transgene expressing the disease-related protein, a mutation in the bus-5 gene which confers drug-sensitivity.
C. elegans cultures were synchronised by incubating an asynchronous culture in basic sodium hypochlorite solution to kill everything but the bleach-resistant mature eggs. […] From this point on, each ageing population was inspected at regular intervals (e.g. daily) and viability assessed by counting the number of dead worms.
The cumulative number of dead worms for each population was used to generate a survival/viability plot to determine chronological lifespan (CLS). Survival was analysed using the Kaplan-Meier log-rank survival analysis method, using the Online Application for Survival (OASIS; see http://sbi.postech.ac.kr/oasis). […]
The effect of tacrolimus on C. elegans expressing wild-type or mutant human SOD-1 in the body wall muscle was determined. […]

For data set [3], the system named is primary motor neuron (MN) cultures generated from rat spinal cord. The experiment in a line: Motor neuron culture with Aβ1-42 insult: neurite network and survival (MAP-2 staining). Format: cell-based. As to conditions: 24 hours after 20 μM Aβ1-42 insult, treated 1 hour before. On the procedure: Primary motor neuron (MN) cultures generated from rat spinal cord were treated with 20 μM amyloid beta 1-42 peptide (Aβ1-42). […] This model was used to determine the effect of tacrolimus on TDP-43 toxicity in motor neurons. […] After permeabilisation with 0.1% saponin, one group of cells was incubated for 2 hours with a) mouse monoclonal anti-microtubule-associated-protein 2 (MAP-2) antibody, and b) rabbit polyclonal anti-TDP-43 antibody. The anti-MAP-2 antibody was used to determine MN survival (number of stained MN) and MN neurite length. The anti-TDP-43 antibody was used to examine extranuclear TDP-43: the area of extranuclear TDP-43 staining per MN was calculated by normalising to the number of MAP-2 positive cells.

The test system of data set [4] is unilaterally 6-OHDA-lesioned rats. Nature of the data set: Amphetamine-induced rotational asymmetry in unilaterally 6-OHDA-lesioned rats. Format: in vivo, rat. As to conditions: 1 mg/kg s.c. 6 days/week, by 6 months, compared to baseline; p<0.05 vs. vehicle at 6 months. The source says:
The objective of this study was to investigate the effect of chronic subcutaneous (s.c) tacrolimus treatment in an aged rat model of Parkinson's disease. Lesion of dopaminergic projections was created by unilateral injection of 6-hydroxydopamine (6-OHDA) in the right medial forebrain bundle (MFB), causing a widespread de-afferentation of substantia nigra pars compacta (SNc) and ventral tegmental area (VTA) terminal fields. The animals can then be monitored for amphetamine-induced rotation asymmetry behaviour: because the lesion is unilateral, asymmetric movement is observed. The degree to which a drug treatment is able to counteract the effects of the lesion can be measured by the reduction in the asymmetry of movement (i.e. the number of clockwise (CW) rotations vs. the number of counterclockwise (CCW) rotations). 50 female Fischer rats aged 18 months were stereotactically injected with 4 μl […] 6-OHDA into the right MFB. […] Motor asymmetry was monitored in automated rotometer bowls (TSE Systems, Germany) for 120 minutes after injection of amphetamine (2.5 mg/kg s.c.). The net rotation asymmetry score for amphetamine test was calculated by subtracting contralateral turns from the ipsilateral turns to the lesion side.

Data set [5] relates to TNF-α. Nature of the data set: Blood TNF-α levels in healthy human volunteers given tacrolimus capsule. It counts as in vivo. The protocol:
A hard gelatine capsule was filled with the following composition:
One capsule as above containing 0.3 mg tacrolimus was administered daily to healthy human volunteers for three successive days. […] Similarly, no change in TNF-α levels occurred as a result of administering 0.6 mg daily of tacrolimus to healthy volunteers. The average trough level of tacrolimus (level after 24 hours of administration of each dose) observed was approximately 220 pg/ml.

As for `C=CC[C@@H]1/C=C(\C)C[C@H](C)C[C@H](OC)[C@H]2O[C@@](O)(C(=O)C(=O)N3CCCC[C@H]3C(=O)O[C@H](/C(C)=C/[C@@H]3CC[C@@H](O)[C@H](OC)C3)[C@H](C)[C@@H](O)CC1=O)[C@H](C)C[C@@H]2OC` [tacrolimus, Tacrolimus], the “expression of transcripts FET3, SOD1, SOD2 and COX9” value in data set [1] is “upregulated”. Moreover, the lifespan result in data set [2] (10 μg/ml in NGM agar, p<0.05 DMSO vs. Tacrolimus) is given as “significant increase in lifespan”. Besides, in data set [2] (bec-1 RNAi, p>0.05 vs. bec-1 RNAi DMSO), the “increase in lifespan when bec-1 knocked down by RNAi” value is “virtually abolished”. Also, the “motor neuron neurite network” value in data set [3] (p<0.05 all concentrations vs. Aβ) was “concentration-dependent increase”. In data set [3] (p<0.05 for 100 nM, 1 μM vs. Aβ), the motor neuron survival entry is “concentration-dependent increase”. Also, in data set [4], the amphetamine-induced rotational asymmetry entry is given as “significant reduction in rotational asymmetry”. In data set [5] (0.3 mg capsule daily for three successive days), the “blood TNF-α levels” value is reported as “No significant changes”. Also, the TNF-α levels result in data set [5] (0.6 mg daily) is “no change”.
